For the assay, the target named is T1, human PKCθ full length enzyme (Homo sapiens, UniProt Q04759).
T1 construct: human PKCθ full length enzyme (Panvera Catalog No. P2996); purchased Panvera P2996
Description: PKCθ IMAP Assay. It counts as biochemical. The note with it: average value when one or more samples were tested; ATP 6 uM, PKCθ 1 nM. In a few lines: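 IMAP fluorescence polarization after 20 min with binding beads measured phosphorylation of 100 nM 5FAM-peptide. Reactions held 1 nM full-length human PKCθ, 6 uM ATP, 5% DMSO and DTT-containing buffer, 25 min at room temperature. Compounds tested as 2:1 serial dilutions; controls lacked ATP or enzyme.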

T1 sequence (Q04759 whole entry): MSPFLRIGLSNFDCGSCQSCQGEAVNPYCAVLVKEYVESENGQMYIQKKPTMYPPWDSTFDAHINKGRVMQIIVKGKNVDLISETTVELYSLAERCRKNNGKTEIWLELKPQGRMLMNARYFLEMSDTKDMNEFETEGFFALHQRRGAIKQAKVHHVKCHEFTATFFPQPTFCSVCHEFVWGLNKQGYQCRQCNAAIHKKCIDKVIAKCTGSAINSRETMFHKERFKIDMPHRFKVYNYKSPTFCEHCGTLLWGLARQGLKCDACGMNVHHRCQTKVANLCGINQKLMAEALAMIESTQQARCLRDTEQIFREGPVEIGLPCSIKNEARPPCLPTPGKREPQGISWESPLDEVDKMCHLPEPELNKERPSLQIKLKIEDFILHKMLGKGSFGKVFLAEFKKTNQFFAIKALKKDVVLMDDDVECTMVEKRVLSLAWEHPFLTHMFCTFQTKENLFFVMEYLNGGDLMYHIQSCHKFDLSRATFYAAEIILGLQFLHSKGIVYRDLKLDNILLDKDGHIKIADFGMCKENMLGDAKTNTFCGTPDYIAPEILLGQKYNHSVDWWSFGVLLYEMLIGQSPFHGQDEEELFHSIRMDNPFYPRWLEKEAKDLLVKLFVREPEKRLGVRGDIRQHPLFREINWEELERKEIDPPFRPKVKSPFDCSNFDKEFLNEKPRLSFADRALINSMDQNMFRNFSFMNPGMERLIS

The IC50 is the point on the concentration scale where inhibition reaches its midpoint. Lower therefore signals inhibition by little substance. As for `Cc1c(Nc2c(C#N)cnc3sc(-c4ccc(OCCCl)cc4)cc23)ccc2[nH]ccc12` [Compound 351, 2-[4-(2-chloroethoxy)phenyl]-4-[(4-methyl-1H-indol-5-yl)amino]thieno[2,3-b]pyridine-5-carbonitrile], the IC50 was 120 nM.
The same measure for `Cc1c(Nc2c(C#N)cnc3sc(-c4ccc(N5CCOCC5)nc4)cc23)ccc2[nH]ccc12` [Compound 329, 4-[(4-methyl-1H-indol-5-yl)amino]-2-(6-morpholin-4-ylpyridin-3-yl)thieno[2,3-b]pyridine-5-carbonitrile]: 160 nM.
As for `CN(C)CCN1CCN(Cc2cccc(-c3cc4c(Nc5ccc6[nH]ccc6c5)c(C#N)cnc4s3)c2)CC1` [Compound 163, 2-[3-({4-[2-(dimethylamino)ethyl]piperazin-1-yl}methyl)phenyl]-4-(1H-indol-5-ylamino)thieno[2,3-b]pyridine-5-carbonitrile], the figure is 130 nM; as for `N#Cc1cnc2sc(-c3cccc(CN4CCN(CC(=O)N5CCCC5)CC4)c3)cc2c1Nc1ccc2[nH]ccc2c1` [Compound 168, 4-(1H-indol-5-ylamino)-2-(3-{[4-(2-oxo-2-pyrrolidin-1-ylethyl)piperazin-1-yl]methyl}phenyl)thieno[2,3-b]pyridine-5-carbonitrile], 520 nM; as for `COc1ccc(C=O)c(-c2cc3c(Nc4ccc5[nH]ccc5c4C)c(C#N)cnc3s2)c1` [Compound 514, 2-(2-formyl-5-methoxyphenyl)-4-[(4-methyl-1H-indol-5-yl)amino]thieno[2,3-b]pyridine-5-carbonitrile], 71 nM.
As for `Cc1c(Nc2c(C#N)cnc3sc(C4CCNCC4)cc23)ccc2[nH]ccc12` [Compound 478, 4-[(4-methyl-1H-indol-5-yl)amino]-2-piperidin-4-ylthieno[2,3-b]pyridine-5-carbonitrile], the figure is 70 nM; as for `Cc1cc2[nH]ccc2cc1Nc1c(C#N)cnc2sc(-c3ccccc3)cc12` [Compound 323, 4-[(6-methyl-1H-indol-5-yl)amino]-2-phenylthieno[2,3-b]pyridine-5-carbonitrile], 87 nM.
`Cc1c(Nc2c(C#N)cnc3sc(-c4ccc(F)c(C(=O)N(C)C)c4)cc23)ccc2[nH]ccc12` [Compound 518, 5-{5-cyano-4-[(4-methyl-1H-indol-5-yl)amino]thieno[2,3-b]pyridin-2-yl}-2-fluoro-N,N-dimethylbenzamide] registered a half-inhibitory concentration (IC50) of 59 nM.
As for `N#Cc1cnc2sc(-c3cccc(CN4CCN(Cc5ccncc5)CC4)c3)cc2c1Nc1ccc2[nH]ccc2c1` [Compound 169, 4-(1H-indol-5-ylamino)-2-(3-{[4-(pyridin-4-ylmethyl)piperazin-1-yl]methyl}phenyl)thieno[2,3-b]pyridine-5-carbonitrile], the figure is 840 nM; as for `Cc1c(Nc2c(C#N)cnc3sc(-c4ccccc4N)cc23)ccc2[nH]ccc12` [Compound 436, 2-(2-aminophenyl)-4-[(4-methyl-1H-indol-5-yl)amino]thieno[2,3-b]pyridine-5-carbonitrile], 215 nM.
As for `Cc1c(Nc2c(C#N)cnc3sc(-c4cccc(N5CCCS5(=O)=O)c4)cc23)ccc2[nH]ccc12` [Compound 519, 2-[3-(1,1-dioxidoisothiazolidin-2-yl)phenyl]-4-[(4-methyl-1H-indol-5-yl)amino]thieno[2,3-b]pyridine-5-carbonitrile], inhibition was half-maximal at 49 nM (IC50).
As for `CCCC/C=C/c1cc2c(Nc3ccc4[nH]ccc4c3)c(C#N)cnc2s1` [Compound 411, 2-[(1E)-hex-1-en-1-yl]-4-(1H-indol-5-ylamino)thieno[2,3-b]pyridine-5-carbonitrile], the figure is 2550 nM; as for `C=C/C=C/c1cc2c(Nc3ccc4[nH]ccc4c3)c(C#N)cnc2s1` [Compound 270, 2-[(1E)-buta-1,3-dien-1-yl]-4-(1H-indol-5-ylamino)thieno[2,3-b]pyridine-5-carbonitrile], 201 nM.
As for `CC(=O)c1cccc(-c2cc3c(Nc4ccc5[nH]ccc5c4C)c(C#N)cnc3s2)c1` [Compound 340, 2-(3-acetylphenyl)-4-[(4-methyl-1H-indol-5-yl)amino]thieno[2,3-b]pyridine-5-carbonitrile], the figure is 26 nM; as for `Cc1c(Nc2c(C#N)cnc3sc(-c4ccc5ccccc5c4)cc23)ccc2[nH]ccc12` [Compound 362, 4-[(4-methyl-1H-indol-5-yl)amino]-2-(2-naphthyl)thieno[2,3-b]pyridine-5-carbonitrile], 72 nM; as for `CNS(=O)(=O)c1ccc(-c2cc3c(Nc4ccc5[nH]ccc5c4)c(C#N)cnc3s2)cc1` [Compound 198, 4-[5-cyano-4-(1H-indol-5-ylamino)thieno[2,3-b]pyridin-2-yl]-N-methylbenzenesulfonamide], 59 nM.
As for `Cc1c(Nc2c(C#N)cnc3sc(/C=C/C(=O)NN(C)C)cc23)ccc2[nH]ccc12` [Compound 313, (2E)-3-{5-cyano-4-[(4-methyl-1H-indol-5-yl)amino]thieno[2,3-b]pyridin-2-yl}-N′,N′-dimethylacrylohydrazide], the figure is 104 nM.
Regarding `Cc1c(Nc2c(C#N)cnc3sc(/C=C/C(=O)N4CCC[C@H]4CN4CCCC4)cc23)ccc2[nH]ccc12` [Compound 299, 4-[(4-methyl-1H-indol-5-yl)amino]-2-{(1E)-3-oxo-3-[(2S)-2-(pyrrolidin-1-ylmethyl)pyrrolidin-1-yl]prop-1-en-1-yl}thieno[2,3-b]pyridine-5-carbonitrile], the IC50 is 32 nM.
In turn, `Cc1c(Nc2c(C#N)cnc3sc(-c4cccc5ccccc45)cc23)ccc2[nH]ccc12` [Compound 363, 4-[(4-methyl-1H-indol-5-yl)amino]-2-(1-naphthyl)thieno[2,3-b]pyridine-5-carbonitrile] registered an IC50 of 401 nM.
In turn, `CON(C)C(=O)c1cccc(-c2cc3c(Nc4ccc5[nH]ccc5c4C)c(C#N)cnc3s2)c1` [Compound 354, 3-{5-cyano-4-[(4-methyl-1H-indol-5-yl)amino]thieno[2,3-b]pyridin-2-yl}-N-methoxy-N-methylbenzamide] came in with an IC50 of 18 nM.
The same measure for `Cc1c(Nc2c(C#N)cnc3sc(/C=C/CN4CCN(C)CC4)c(C)c23)ccc2[nH]ccc12` [Compound 279, 3-methyl-4-[(4-methyl-1H-indol-5-yl)amino]-2-[(1E)-3-(4-methylpiperazin-1-yl)prop-1-en-1-yl]thieno[2,3-b]pyridine-5-carbonitrile]: 17 nM; for `Cc1c(Nc2c(C#N)cnc3sc(I)c(C(C)C)c23)ccc2[nH]ccc12` [Compound 324, 2-iodo-3-isopropyl-4-[(4-methyl-1H-indol-5-yl)amino]thieno[2,3-b]pyridine-5-carbonitrile]: 65 nM; for `CCNC(=O)/C=C/c1cc2c(Nc3ccc4[nH]ccc4c3C)c(C#N)cnc2s1` [Compound 307, (2E)-3-{5-cyano-4-[(4-methyl-1H-indol-5-yl)amino]thieno[2,3-b]pyridin-2-yl}-N-ethylacrylamide]: 15 nM.
As for `Cc1c(Nc2c(C#N)cnc3sc(-c4cccc(C(=O)NCCN(C)C)c4)cc23)ccc2[nH]ccc12` [Compound 339, 3-{5-cyano-4-[(4-methyl-1H-indol-5-yl)amino]thieno[2,3-b]pyridin-2-yl}-N-[2-(dimethylamino)ethyl]benzamide], the figure is 9 nM.

The values above are taken from patent publication US20070082880A1 (priority 2005, published 2007).
